Measurements from PubChem BioAssay (NCI).
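All cell lines were grown in 96-well plates and treated with compound for 48 hours. Here, GI50 denotes the concentration required for 50% inhibition of growth. TGI is the concentration that stops growth completely.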

Key:
Assay in all cases: NCI tumour cell line growth inhibition, 48 h
DLD-1 colon = tested on: DLD-1 colon
HOP-18 NSCLC = tested on: HOP-18 NSCLC
SNB-78 CNS = tested on: SNB-78 CNS
HOP-92 NSCLC = tested on: HOP-92 NSCLC
NCI-H226 lung = tested on: NCI-H226 lung
LXFL 529 NSCLC = tested on: LXFL 529 NSCLC
MALME-3M melanoma = tested on: MALME-3M melanoma
NCI-H522 lung = tested on: NCI-H522 lung
KM20L2 colon = tested on: KM20L2 colon
SK-MEL-2 melanoma = tested on: SK-MEL-2 melanoma
DMS 114 small cell lung = tested on: DMS 114 small cell lung
HS 578T breast = tested on: HS 578T breast
BT-549 breast = tested on: BT-549 breast

For `CCCCC#C[I+]c1ccccc1`, the TGI (DLD-1 colon) was 38.2 µM, the TGI (HOP-18 NSCLC) was 27.6 µM and the TGI (SNB-78 CNS) was 60.3 µM. The TGI (HOP-92 NSCLC) was 24.1 µM, the TGI (NCI-H226 lung) was 30.7 µM and the TGI (LXFL 529 NSCLC) was 24.6 µM. For the same molecule, the TGI (MALME-3M melanoma) was 28.2 µM, the TGI (NCI-H522 lung) was 15.5 µM and the TGI (KM20L2 colon) was 35.9 µM. It also gave a TGI (SK-MEL-2 melanoma) of 34.1 µM.
In the case of `C=C(C)C(=O)OC1C/C(CO)=C\C(O)C/C(C)=C/C2OC(=O)C(=C)C21` (stereo not drawn), the TGI (HOP-18 NSCLC) is reported as 83.4 µM, the TGI (DMS 114 small cell lung) is reported as 60.8 µM and the TGI (SNB-78 CNS) is reported as greater than 100 µM. It also gave a TGI (HOP-92 NSCLC) of 38.2 µM, a TGI (NCI-H226 lung) of 79.5 µM and a TGI (LXFL 529 NSCLC) of 32.2 µM. The TGI (MALME-3M melanoma) was 39 µM, the TGI (NCI-H522 lung) was 30.3 µM and the TGI (KM20L2 colon) was 97.3 µM. The TGI (SK-MEL-2 melanoma) was 36.6 µM.
Molecule `O=C(CCN1CCCCC1)C(=Cc1ccccc1)C(=O)CCN1CCCCC1` has a TGI (DLD-1 colon) of 44.5 µM, a GI50 (HOP-18 NSCLC) greater than 100 µM and a TGI (HOP-18 NSCLC) greater than 100 µM. It also gave a GI50 (DMS 114 small cell lung) of 38.7 µM, a GI50 (SNB-78 CNS) of 3.5 µM and a TGI (SNB-78 CNS) greater than 100 µM. For the same molecule, the TGI (HOP-92 NSCLC) was greater than 96.8 µM, the TGI (NCI-H226 lung) was greater than 100 µM and the GI50 (NCI-H522 lung) was 15.1 µM. For the same molecule, the TGI (KM20L2 colon) was greater than 100 µM and the TGI (SK-MEL-2 melanoma) was greater than 100 µM.
Work on `Cc1c(O)c(O)cc[n+]1C1OC(CO)C(O)C1O` (stereo not drawn) yielded a TGI (DLD-1 colon) greater than 100 µM, a TGI (HOP-18 NSCLC) greater than 100 µM and a TGI (SNB-78 CNS) greater than 100 µM. The TGI (HOP-92 NSCLC) was greater than 100 µM, the TGI (NCI-H226 lung) was greater than 100 µM and the TGI (LXFL 529 NSCLC) was greater than 100 µM. For the same molecule, the TGI (MALME-3M melanoma) was greater than 100 µM, the TGI (NCI-H522 lung) was greater than 100 µM and the TGI (KM20L2 colon) was greater than 100 µM. For the same molecule, the TGI (SK-MEL-2 melanoma) was greater than 100 µM.
Molecule `O=C1/C(=C\c2ccccc2)C(NC2CCCCC2)c2ccccc21` (stereo not drawn) has a TGI (HOP-92 NSCLC) of 4.8 µM, a TGI (NCI-H226 lung) of 14.1 µM and a TGI (HS 578T breast) of 16.3 µM. The TGI (MALME-3M melanoma) was 3.01 µM, the TGI (NCI-H522 lung) was 2.05 µM and the TGI (SK-MEL-2 melanoma) was 5.25 µM. The TGI (BT-549 breast) was 5.69 µM.
In the case of `O=C(N/N=C(/COc1ccc(Cl)cc1)N=Cc1ccncc1)c1ccncc1`, the TGI (HOP-92 NSCLC) is reported as greater than 100 µM, the TGI (NCI-H226 lung) is reported as greater than 100 µM and the TGI (HS 578T breast) is reported as greater than 100 µM. The TGI (MALME-3M melanoma) was greater than 100 µM, the TGI (NCI-H522 lung) was greater than 100 µM and the TGI (SK-MEL-2 melanoma) was greater than 100 µM. The TGI (BT-549 breast) was greater than 100 µM.
With `C1CN(c2nc3c(nnc4nc(N5CCOCC5)sc43)s2)CCO1` the TGI (HOP-92 NSCLC) was greater than 100 µM, the TGI (NCI-H226 lung) was greater than 100 µM and the TGI (HS 578T breast) was greater than 100 µM. The TGI (MALME-3M melanoma) was greater than 100 µM, the TGI (NCI-H522 lung) was greater than 100 µM and the TGI (SK-MEL-2 melanoma) was greater than 100 µM. For the same molecule, the TGI (BT-549 breast) was greater than 100 µM.
In the case of `Cc1ccc(C(=O)O)cc1S(=O)(=O)Nn1cnc2ccc(S(=O)(=O)Nc3ccccc3C(=O)O)cc2c1=O`, the TGI (HOP-92 NSCLC) is reported as greater than 100 µM, the TGI (NCI-H226 lung) is reported as greater than 100 µM and the TGI (HS 578T breast) is reported as greater than 100 µM. It also gave a TGI (MALME-3M melanoma) greater than 100 µM, a TGI (NCI-H522 lung) greater than 100 µM and a TGI (SK-MEL-2 melanoma) greater than 100 µM. It also gave a TGI (BT-549 breast) greater than 100 µM.
`Nc1nc(Cl)cc(NCC2(CO)CC(=O)C2)n1` gave a TGI (HOP-92 NSCLC) greater than 100 µM, a TGI (NCI-H226 lung) greater than 100 µM and a TGI (HS 578T breast) greater than 100 µM. For the same molecule, the TGI (MALME-3M melanoma) was greater than 100 µM, the TGI (NCI-H522 lung) was greater than 100 µM and the TGI (SK-MEL-2 melanoma) was greater than 100 µM. It also gave a TGI (BT-549 breast) greater than 100 µM.
`COC(=O)c1cc(=O)nc2sc3cccc(C)c3n12` was tested, and the TGI (HOP-92 NSCLC) was 69.1 µM, the TGI (NCI-H226 lung) was greater than 100 µM and the TGI (HS 578T breast) was greater than 100 µM. For the same molecule, the TGI (MALME-3M melanoma) was 70.1 µM, the TGI (NCI-H522 lung) was 48.3 µM and the TGI (SK-MEL-2 melanoma) was 82.5 µM. It also gave a TGI (BT-549 breast) greater than 100 µM.
`Cc1ccccc1C(=O)N1CCc2c([nH]c3ccccc23)C1` showed a TGI (HOP-92 NSCLC) of 44.4 µM, a TGI (NCI-H226 lung) of 65 µM and a TGI (HS 578T breast) of 84.8 µM. It also gave a TGI (MALME-3M melanoma) of 81.5 µM, a TGI (NCI-H522 lung) of 46.1 µM and a TGI (SK-MEL-2 melanoma) of 27 µM. For the same molecule, the TGI (BT-549 breast) was 42.8 µM.
`CC(=O)O[C@@H]1[C@H](C(C)C)[C@@H](OC(C)=O)C/C(C)=C/CC[C@]2(C)O[C@@H]12` was tested, and the TGI (HOP-92 NSCLC) was greater than 100 µM, the TGI (NCI-H226 lung) was greater than 100 µM and the TGI (HS 578T breast) was greater than 100 µM. The TGI (MALME-3M melanoma) was greater than 100 µM, the TGI (NCI-H522 lung) was greater than 100 µM and the TGI (SK-MEL-2 melanoma) was greater than 100 µM. It also gave a TGI (BT-549 breast) greater than 100 µM.
With `O=C1CSC(c2ccc(Cl)cc2)N1c1ccc(Oc2ccc(Cl)cc2)c(Cl)c1` (stereo not drawn) the TGI (HOP-92 NSCLC) was 30.3 µM, the TGI (NCI-H226 lung) was 36.5 µM and the TGI (HS 578T breast) was 27.5 µM. For the same molecule, the TGI (MALME-3M melanoma) was 21.9 µM, the TGI (NCI-H522 lung) was 23.3 µM and the TGI (SK-MEL-2 melanoma) was 33.9 µM. For the same molecule, the TGI (BT-549 breast) was 29 µM.
`CC(C)CCS(=O)(=O)OCCCCOS(=O)(=O)CCC(C)C` was tested, and the TGI (DLD-1 colon) was greater than 100 µM, the TGI (DMS 114 small cell lung) was greater than 100 µM and the TGI (SNB-78 CNS) was greater than 100 µM. For the same molecule, the TGI (NCI-H226 lung) was greater than 100 µM, the TGI (LXFL 529 NSCLC) was greater than 100 µM and the TGI (MALME-3M melanoma) was greater than 100 µM. It also gave a TGI (NCI-H522 lung) greater than 100 µM and a TGI (KM20L2 colon) greater than 100 µM.
`CC(C)(C)N1CSC(=S)N(Cc2ccco2)C1` gave a TGI (HOP-92 NSCLC) of 12.1 µM, a TGI (NCI-H226 lung) of 41.4 µM and a TGI (HS 578T breast) of 26.1 µM. The TGI (MALME-3M melanoma) was 16.6 µM, the TGI (NCI-H522 lung) was 12 µM and the TGI (SK-MEL-2 melanoma) was 14.6 µM. For the same molecule, the TGI (BT-549 breast) was 9.62 µM.
`O=C1CC(NC(=O)C(F)(F)F)c2c(Br)sc(N3CCNCC3)c21` (stereo not drawn) was tested, and the TGI (HOP-92 NSCLC) was greater than 100 µM, the TGI (NCI-H226 lung) was greater than 100 µM and the TGI (HS 578T breast) was greater than 100 µM. For the same molecule, the TGI (MALME-3M melanoma) was greater than 100 µM, the TGI (NCI-H522 lung) was greater than 100 µM and the TGI (SK-MEL-2 melanoma) was greater than 100 µM. For the same molecule, the TGI (BT-549 breast) was greater than 100 µM.
`C#CCNC(CS)C(=O)O` (stereo not drawn) was tested, and the TGI (HOP-92 NSCLC) was greater than 100 µM, the TGI (NCI-H226 lung) was greater than 100 µM and the TGI (HS 578T breast) was greater than 100 µM. It also gave a TGI (MALME-3M melanoma) greater than 100 µM, a TGI (NCI-H522 lung) greater than 100 µM and a TGI (SK-MEL-2 melanoma) greater than 100 µM. The TGI (BT-549 breast) was greater than 100 µM.
